Assay results published in patent US10080748B2, “Use of flap inhibitors to reduce neuroinflammation mediated injury in the central nervous system” (Bioscience Pharma Partners, LLC, priority 2014, dated 2018).
Where a name gives a salt, the structure may show the parent alone. Read-outs that look alike come from different tables or passages of the source.

Assays:
[1] = system: leukotriene LTC4 production; test: LTC4 levels in brain after rat fluid percussion injury (RP LC-MS/MS); type: in vivo; conditions: neutrophil depletion, 0.5 mg/kg IV four days prior to TBI; 1 hour after FPI
Method: Craniotomy and lateral fluid percussion injury (FPI) were performed using a previously validated and published procedure. Farias S, et al. J. Neurotraum, 26, 1977-1986, 2009; Frey L. C. et al. J. Neurosci. Methods 177, 267-272, 2009. Throughout the specification animals subjected to this protocol are referred to as having a TBI since this treatment protocol is a TBI model. Briefly, rats were anesthetized with 3-5% isoflurane, isosol, VEDCO Inc., St. Joseph, Mo., via nose cone and mounted in a stereotaxic head frame. A 3 millimeter (mm) craniotomy was created and centered at 3 mm caudal to bregma and 3.5 mm left of the sagittal suture, keeping the exposed dura intact. One steel support screw was embedded in the skull on the contralateral side. A Luer-Lock hub with an inside diameter of 3.5 mm was centered over the craniotomy and bonded to the skull with cyanoacrylate adhesive and capped. Dental acrylic, Snap, Parka, Inc., Edgewood, N.J., was poured around the huh and screw. After the acrylic hardened antibiotic ointment was applied around the cap and the animals were returned to their cages. The next day, approximately 15-20 hours later, animals were anesthetized with isoflurane in an induction chamber, immediately connected to the FPI apparatus, and received a 20 millisecond (ms) pulse of pressurized sterile saline at 2.7 atmospheres (atm) of pressure to simulate a moderate severity impact on the intact dural surface through the craniotomy before awakening from anesthesia. […] All animals received a subcutaneous injection of the analgesic, buprenorphine, 0.05 milligram/kilogram (mg/kg) Buprenex, prior to craniotomy, and subsequent injections every 12 hours for two days. Moistened food pellets were provided after injury, and all animals were monitored daily for well-being and weight changes.
Two groups of four rats each were subjected to FPI as described above. Four days prior to the FPI, each animal was briefly anesthetized for less than 5 minutes with 3-3.5% isoflurane and administered either NaCl 0.9%, 2 ml/kg IV (vehicle) or vinblastine sulfate 0.5 mg/kg IV in an identical volume. Neutrophil depletion was verified by complete cell blood counts (CBC) in vinblastine treated animals 4 days after administration. Both groups were euthanized by decapitation and the brain lipids extracted 1 hour after FPI. The amounts of LTC4 formed, measured by RP LC-MS/MS and normalized per milligram of protein, were compared between groups using one-way analysis of variance and the Student-Newman-Keuls test for multiple comparisons.
The indole FLAP inhibitor MK-886 was prepared at a dose of 2.5 milligram/milliliter (mg/ml), dissolved in dimethyl sulfoxide (DMSO) and then diluted with 0.9% saline to 10% DMSO. The rats were briefly anesthetized with 3-3.5% isoflurane and either […] at a dose of 6 mg/kg or vehicle was administered intravenously (IV) by tail vein injection. All animals were allowed to wake before undergoing additional procedures.
Cortical and hippocampal regions from ipsilateral and contralateral hemispheres were collected in 4 ml of 80% methanol, homogenized with a Dounee homogenizer, and internal standards were added to the homogenates. Protein content was measured using bicinchoninic acid assay (BCA) for protein to normalize lipid levels to the amount of tissue. Samples were centrifuged and the supernatant was collected. Samples were diluted to a final methanol concentration of lower than 15% and then the lipids were extracted using a solid phase extraction cartridge, Strata C18-E, 100 mg/1 ml, Phenomenex, Torrence Calif. The eluate, 1 ml of methanol, was dried down and reconstituted in 70 microliters (μl) of High Performance Liquid Chromotography (HPLC) solvent A, which is 8.3 mM acetic acid buffered to pH 5.7 with NH4OH, plus […] of solvent B, which is acetonitrile/methanol, 65/35, v/v. […]

[2] = system: Primary neurons cultured from newborn rats; test: Apoptosis of primary neurons in vitro
Method: Primary neurons cultured from newborn rats were incubated in the presence of increasing concentrations of LTC4 or LTD4 for 16 hours.

[3] = Brain and plasma levels 30 minutes after intraperitoneal administration; type: in vivo, rat; conditions: intraperitoneal 10 mg/kg in 20% DMSO/saline; 30 minutes post-dosing
Method: The rats were injected intraperitoneally with MK-591 (10 mg/kg in 20% DMSO/saline solution). At 30 minutes post-dosing, blood was collected from anesthetized animals using a heparanized needle and plasma was separated from blood by centrifugation. The animals were then perfused with saline, while still under anesthesia, to remove drug in the blood of the cerebrovasculature. After perfusion the animals were euthanized and brain hemispheres were rapidly removed. Both plasma and brain tissue samples were frozen in liquid nitrogen followed by storage at −80° C. Drug levels in the peripheral plasma and brain were assessed using a validated tandem RP-LC/MS/MS platform. […] Using the conversion of 1 ml=1 gm. The total volume of blood was 2 ml (or […]). The total weight of the brain hemisphere (minus cerebellum) is […]. Values are expressed in ng of MK-591/mg tissue.

[4] = cited from earlier work
[5] = system: mice subjected to CHI (mTBI model); test: GFAP and Iba-1 immunohistochemical staining, mouse closed head injury (CHI) model; type: in vivo; conditions: 5 mg/kg IP once daily for 6 days after CHI; 7 dpi
[6] = cited from earlier work; remark: listed apart in the source
[7] = Brain and plasma levels 30 minutes after intranasal administration; type: in vivo, rat; conditions: intranasal 60 micrograms/32 ul lipid carrier, 30 minutes post-dosing
Method: For intranasal delivery and subsequent tissue collection, rats were anesthetized with 3.5% isoflurane and placed in a supine position on top of a heating pad. The quinoline-indole FLAP inhibitor MK-591, 60 micrograms (μg) formulated with a lipid carrier was administered using a P20 pipette. Specifically, 4 μl drops were formed at the pipette tip and lowered to alternating nostrils every two minutes until a total of eight 4 μl drops were administered. At 30 minutes after the start of intranasal delivery, blood was collected from the heart, and rats were transcardially perfused with 60 ml ice-cold 0.9% NaCl followed by 360 ml 4% paraformaldehyde at 15 ml/minute. Brain tissues were dissected into anatomical regions on ice, weighed, snap-frozen in liquid N2, and stored at −70° C. until analysis. The levels of MK-591 in tissues and plasma were measured by tandem mass spectroscopy.
The MK-591 was formulated in a lipid carrier solution as described above. […] The rats were briefly anesthetized with 3.5% isoflurane and intranasal MK-591 (60 micrograms/32 ul lipid carrier) was administered in eight 4 ul aliquots to the nasal mucosa alternating between each nostril. The amount of drug was determined with the goal of reaching 200 nM concentration of drug which corresponds to 100× the Kd value for binding to FLAP. At 30 minutes post-dosing, blood was collected from anesthetized animals using a heparanized needle and plasma was separated from blood by centrifugation. The animals were then perfused with saline, while still under anesthesia, to remove drug in the blood of the cerebrovasculature. After perfusion the animals were euthanized and brain regions were rapidly removed. Both plasma and brain tissue samples were frozen in liquid nitrogen followed by storage at −80° C. Drug levels in the peripheral plasma and parenchymal brain tissues were assessed using a validated tandem mass spectroscopy platform. Values are expressed in ng of MK-591/mg tissue. […] The concentration of MK-591 in the cortex was 200 nM, the target concentration.

human whole blood = test: Human whole blood bioassay of LTB4, 5-HETE and AA production; type: cell-based
Description: The results are for the effects of these two FLAP inhibitors on LTB4 production and 5-HETE production. It is known that indole-acetic acid FLAP inhibitors like MK-886, MK-591 display high plasma protein binding. Thus, the potencies of these FLAP inhibitors for blocking leukotrienes in vivo are about 100 fold higher than the affinity of the inhibitors for FLAP binding. The inventors developed a bioassay that closely predicts the in vivo potency of FLAP inhibitors using human whole blood. Briefly, whole blood is incubated with a calcium ionophore like […] or zymosan in the absence or presence of increasing concentrations of a FLAP inhibitor. After incubation at 37° C. for 30 minutes, the samples are centrifuged and the plasma supernatant is subjected to reverse phase liquid chromatography coupled to tandem mass spectrometry to quantify levels of LTB4, 5-HETE, and AA production. Drug IC50 values are determined by non-linear regression analysis (GraphPad Prism).). […] As FLAP inhibitors are poorly water soluble drugs, the inventors have shown that such hydrophobic drugs can be formulated in a carrier comprising one or more vegetable oils, such as olive oil, and phosphatidylserine that are found on the Generally Accepted as Safe (GRAS) list and that such drugs can then be rapidly delivered and targeted to the brain and upper spinal cord. Hanson L R, et al, Drug Delivery 19(3):149-54, 2012.

In the case of CC[C@]1(O)C[C@@H]2CN(CCc3c([nH]c4ccccc34)[C@@](C(=O)OC)(c3cc4c(cc3OC)N(C)[C@H]3[C@@](O)(C(=O)OC)[C@H](OC(C)=O)[C@]5(CC)C=CCN6CC[C@]43[C@@H]65)C2)C1 [vinblastine, vinblastine sulfate], the “leukotriene production in the ipsilateral hemisphere” value [1] is reported as “markedly reduced”.

With CCCCC/C=C\C\C=C/C=C/C=C/[C@@H](SC[C@H](NC(=O)CC[C@H](N)C(=O)O)C(=O)NCC(=O)O)[C@@H](O)CCCC(=O)O [LTC4, leukotriene C4] the neuronal apoptosis ([2]; increasing concentrations, 16 hours, dose-dependent) was “induce neuronal apoptosis”.

With CCCCC/C=C\C\C=C/C=C/C=C/[C@@H](SC[C@H](N)C(=O)NCC(=O)O)[C@@H](O)CCCC(=O)O [LTD4, leukotriene D4] the neuronal apoptosis [2] was “induce neuronal apoptosis”.

In the case of CC(C)(C)Sc1c(CC(C)(C)C(=O)O)n(Cc2ccc(Cl)cc2)c2ccc(OCc3ccc4ccccc4n3)cc12 [MK-591], the “distribution between plasma and brain tissue” value [3] is given as “most of the drug was in the plasma with much lower levels found in brain tissue”, the “t1/2 compared with MK-886” value [4] is given as “longer” and the “GFAP staining in cerebral cortex, external capsule and dentate gyrus” value [5] is given as “significantly blocked the increase”. For the same molecule, the “Iba-1 staining in cerebral cortex, external capsule and dentate gyrus” value [5] was “significantly blocked the increase”, the plasma protein binding [6] was “high” and the “brain localization (rank of regions by level)” value [7] was “highest level of MK-591 was detected in the olfactory bulbs, followed by the hippocampus, and cortex”. The “levels of drug in plasma versus brain” value [7] was “lower than the amount of drug reaching the brain”, the concentration at 30 min ([7]; rat, brain cortex, other: intranasal) was 200 nM and the “potency compared with MK-886” value (human whole blood) was “more potent”. The AA production (human whole blood; human whole blood, data not shown) was “neither of the FLAP inhibitors effected AA production”.
